Laboratory results as given in patent US20130089601A1, “METHOD FOR TREATING ATHEROSCLEROSIS” (KAOHSIUNG MEDICAL UNIVERSITY, priority 2009, published 2013).

Key:
Format in all cases: cell-based, human
MCP-1 = MCP-1 secreted from VSMC, sandwich enzyme immunoassay
Description: Monocyte chemotactic protein-1 (MCP-1) is a well established atherosclerotic biomarker and it was examined to further test for the influence of microRNA-195 on the atherogenic biomarker. VSMC cells in six-well plates were grown to confluence and then cultivated in a serum-free medium for 24 hours before the experiment. After transfection of microRNA-195 for 24 hours, the cells were further incubated with ox-LDL and simvastatin for another 24 hours. The supernatants of the conditioned medium were collected and frozen at −70° C. The culture supernatants were analyzed to determine the MCP-1 using Sandwich Enzyme Immunoassay kits (BD Biosciences) according to the manufacturer protocol.

[1] = tested on: THP-1 cells adherent to HUVEC; experiment: In vitro adhesion assay of THP-1 cells to HUVEC co-cultured with transfected HASMCs; conditions: in the presence of ox-LDL, vs NC-miR
Text: MicroRNA-195 mimic, microRNA-195 inhibitor and negative control microRNA (NC-miR) were purchased from Ambion Inc. (TX, USA) with the sequences information shown as microRNA-195 mimic, 5′-[…]-3′ (SEQ ID NO: 5); microRNA-195 inhibitor, 5′-[…]-3′ (SEQ ID NO: 6); negative control sequence, 5′-AGUACUGCUUACGAUACGG-3′ (SEQ ID NO: 7). MicroRNA -195 inhibitor was used to specifically bind to and inhibit endogenous microRNA-195. The NC-miR is a random sequence pre-miR molecule that has been extensively tested in human cell lines and tissues and validated to produce no identifiable effects on known miRNA function. […]
At first, human aorta smooth muscle cells (HASMCs) were seeded on the inner side of Millicell® with the PET membrane (Millipore, Hanging 24-well cell culture inserts) at a density of 3×10^5 cells/cm^2 and transfected with microRNA-195 mimic mimic by using lipofectamine2000 for 24 hours. […] Then 4 ml of new culture medium was put in each dish and they were incubated overnight at 37° C. in 5% CO2 and 95% air humidified atmosphere to get ready for use in adhesion experiments of THP-1 cells.
To visualize the THP-1 cells adherent to the HUVEC-HASMC co-culture, the THP-1 cells were labeled with a fluorescent dye, calcein-AM. Fluorescence-labeled cells were resuspended in 4 ml of IMDM containing 10% FCS and prepared for use in adhesion experiments. […]

TNF-a = experiment: Real-time qPCR of TNF-a mRNA in HUVECs co-cultured with transfected HASMCs; conditions: co-cultured with microRNA-195-transfected HASMCs
Description: (§1) HASMCs were transfected with negative control microRNA or microRNA-195 with or without the presence of oxLDL. MicroRNA-195-transfected HASMCs were co-cultured with HUVEC. Real-time qPCR analysis of mRNA levels for genes surrogating endothelial functions as well as atherosclerosis, such as vascular cell adhesion molecule-1 (VCAM-1), […] (TNF-a) and interleukin-6 (IL-6), and vasodilation gene, endothelial nitric oxide synthase (eNOS), were determined in HUVECs.

VCAM-1 = experiment: Real-time qPCR of VCAM-1 mRNA in HUVECs co-cultured with transfected HASMCs; conditions: co-cultured with microRNA-195-transfected HASMCs
Description: as §1

VSMC cells = experiment: Chemotactic migration of VSMC (Transwell); conditions: 100 nM for 24 hours, ox-LDL 40 μg/ml
Description: Chemotactic migration is another characteristic of atherosclerosis and can be used as another line of evidence of atherosclerotic change for the cultured VSMC cells. This experiment was assayed by using a microchemotactic chamber and polycarbonate filters with pores of […] in diameter (Transwell, Millipore). After incubated with microRNA-195 (Pre-miR miRNA, hsa-miR-195 (product ID PM10827), Ambion Inc.) (100 nM) or an inhibitor (100 nM) for 24 hours, the VSMC cells were trypsinized and suspended with a serum free medium. A volume (300 μl) of a 1×10^4 cell suspension was placed in the upper chamber, the medium containing ox-LDL (40 μg/ml, each) was placed in the lower and upper chamber. The cell suspension was incubated at a temperature of 37° C. under 5% CO2 in air for 24 hours. After incubation, the VSMC cells on the upper side of the filter were scraped off, and the cells that had directly migrated to the lower side of the filter were trypsinized. The cells were fixed with methanol and stained with a Giemsa solution (Merck). Quantification of chemotactic migration was performed using the hemocytometer.

Substance: microRNA-195: Pre-miR miRNA, hsa-miR-195 (product ID PM10827), Ambion Inc., which mimics precursor for mature human miR-195; mimic 5′-UAGCAGCACAGAAAUAUUGGC-3′ (SEQ ID NO: 5) (chemistry not given here)
- effect on reducing the atherogenic biomarker (MCP-1) compared with simvastatin (MCP-1; ox-LDL stimulation): stronger effect
- MCP-1 levels (MCP-1; transfection 24 hours then ox-LDL 24 hours, culture supernatant): significantly decrease
- THP-1 cells adhering to HUVEC [1]: fewer
- TNF-a mRNA level in HUVECs (TNF-a): suppresses
- VCAM-1 mRNA level in HUVECs (VCAM-1): suppresses
- chemotactic migration, percentage of migrated cells compared to control medium cells (VSMC cells): 137.6%
